Source: PubChem BioAssay AID651989 (The Scripps Research Institute Molecular Screening Center, 2013)
Active and inactive are the calls of the source. The rule behind the calls is not given here.

The compounds below were run against methionyl-tRNA synthetase (Trypanosoma brucei brucei) (UniProt Q38C91) (assay: T. brucei MetRS inhibitors, dose response, orthogonal assay for T. brucei MetRS inhibitor project, biochemical, fluorescence polarization (AID 651989)). Conditions: Fluorescence polarization biochemical MetRS inhibition.
Sequence of methionyl-tRNA synthetase (Trypanosoma brucei brucei) (Q38C91 1-773): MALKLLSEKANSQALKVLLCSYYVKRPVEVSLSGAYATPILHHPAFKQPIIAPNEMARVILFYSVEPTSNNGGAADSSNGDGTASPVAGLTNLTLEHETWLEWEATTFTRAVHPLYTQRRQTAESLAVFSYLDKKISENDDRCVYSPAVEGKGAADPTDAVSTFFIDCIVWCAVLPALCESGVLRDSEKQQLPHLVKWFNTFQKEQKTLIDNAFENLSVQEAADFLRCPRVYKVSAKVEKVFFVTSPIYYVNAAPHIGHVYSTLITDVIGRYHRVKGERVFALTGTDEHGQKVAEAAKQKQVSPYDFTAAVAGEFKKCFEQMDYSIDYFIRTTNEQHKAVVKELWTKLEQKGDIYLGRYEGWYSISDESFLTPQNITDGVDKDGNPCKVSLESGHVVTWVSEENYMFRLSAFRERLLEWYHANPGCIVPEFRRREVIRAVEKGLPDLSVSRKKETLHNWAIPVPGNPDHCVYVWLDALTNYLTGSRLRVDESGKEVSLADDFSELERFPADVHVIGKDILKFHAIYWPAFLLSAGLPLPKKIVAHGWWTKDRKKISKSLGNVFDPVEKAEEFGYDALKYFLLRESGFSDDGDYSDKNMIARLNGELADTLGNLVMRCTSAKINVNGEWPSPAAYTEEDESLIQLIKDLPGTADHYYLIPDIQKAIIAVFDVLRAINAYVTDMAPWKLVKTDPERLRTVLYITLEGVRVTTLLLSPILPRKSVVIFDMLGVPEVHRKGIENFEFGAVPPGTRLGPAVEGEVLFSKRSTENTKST

SMILES	IC50
O=C(OCC(=O)c1c[nH]c2ccccc12)c1ccc(OC(F)F)cc1	> 119 µM (inactive)
COc1ccc(NC(=O)COC(=O)CCCOc2ccc(Cl)cc2Cl)cc1	> 119 µM (inactive)
COc1cc(OC)c(OC)cc1/C=N/Nc1nc2ccccc2[nH]1	> 119 µM (inactive)
COc1ccc(CC(=O)OCC(=O)Nc2ccc(Br)cc2)cc1	> 119 µM (inactive)
Cc1cc(Cl)ccc1OCCCC(=O)NNC(=O)c1ccccc1O	> 119 µM (inactive)
Cc1ccc(C(=O)Nn2c(O)c(C=C3N=c4ccccc4=N3)sc2=S)cc1	> 119 µM (inactive)
O=C(Cc1ccc(Br)cc1)NNC(=O)Nc1ccc(Cl)cc1	> 119 µM (inactive)
O=C(NCc1cc(Br)cc(Br)c1OC(=O)c1ccccc1[N+](=O)[O-])c1ccccc1	> 119 µM (inactive)

More lines, now with the values ahead:

IC50	SMILES
inactive	Clc1ccccc1-c1ccc2ncnc(NCc3ccc4c(c3)OCO4)c2c1
> 119 µM (inactive)	Cc1cc2c(c(=O)n1CC1CCCO1)C(c1ccc3c(c1)OCO3)C(C#N)=C(N)O2 (stereo not drawn)
> 119 µM (inactive)	N#Cc1ccccc1CSc1ccc(-c2nc3ccccc3[nH]2)cn1
> 119 µM (inactive)	CO/N=C(\c1nonc1N)N1CCN(c2ccc(Cl)cc2[N+](=O)[O-])CC1
> 119 µM (inactive)	N#Cc1ccccc1CSc1nc2ncc(Br)cc2[nH]1
